Like-named read-outs stand apart in the source and are kept apart here. Marks after values point to notes of the source that are not given here.

Data set [1] is described as follows: Inhibition of linoleic acid lipid peroxidation (AAPH). As to conditions: % inhibition at 100 μM; pH 7.4, 37 °C. Here is the method:
Production of conjugated diene hydroperoxide by oxidation of sodium linoleate in an aqueous dispersion is monitored at 234 nm. AAPH is used as a free radical initiator [12, 24]. Ten microlitres of the 16 mM sodium linoleate solution was added to the UV cuvette containing 930 μL of 0.05 M phosphate buffer, pH 7.4 prethermostated at 37 °C. The oxidation reaction was initiated at 37 °C under air by the addition of 40 mM AAPH solution (50 μL). Ten μL of the tested compounds were added in the mixture. Lipid oxidation was measured in the presence of the same level of DMSO. The rate of oxidation at 37 °C was monitored by recording the increase in absorption at 234 nm caused by conjugated diene hydroperoxides. The results were compared to the appropriate standard inhibitor trolox (63%) (Table 1).

A short description of data set [2]: Lipophilicity as RM values by RP-TLC. The format is physicochemical. As to conditions: methanol/water 70/30, 24 °C, average of at least five measurements. From the text: Since lipophilicity is a significant physicochemical property determining distribution, bioavailability, metabolic activity and elimination, we tried to determine experimentally the lipophilicity of the new substances by a RPTLC method as RM values (Table 1) and to compare them with the corresponding theoretically calculated clog p values in n-octanol-buffer. This is considered to be a reliable, fast and convenient method for expressing lipophilicity. Lipophilicity (Table 2), was theoretically calculated as Clog p values in n-octanol-buffer by the CLOGP Programme of Biobyte Corp..
Reversed phase TLC (RP-TLC) was performed on silica gel plates impregnated with 5% (v/v) liquid paraffin in light petroleum ether. The mobile phase was a methanol/water mixture (70/30, v/v). The plates were developed in closed chromatography tanks saturated with the mobile phase at 24 °C. Spots were detected under UV light. RM values were determined from the corresponding Rf values (from five individual measurements) using the equation RM = log [(1/Rf) − 1] (Table 1).

The target of a further data set is T1, soybean lipoxygenase (Glycine max, UniProt P08170).
T1 construct: purchased Sigma Chemical, Co. (St. Louis, MO, USA)
T1 sequence (P08170 1-839): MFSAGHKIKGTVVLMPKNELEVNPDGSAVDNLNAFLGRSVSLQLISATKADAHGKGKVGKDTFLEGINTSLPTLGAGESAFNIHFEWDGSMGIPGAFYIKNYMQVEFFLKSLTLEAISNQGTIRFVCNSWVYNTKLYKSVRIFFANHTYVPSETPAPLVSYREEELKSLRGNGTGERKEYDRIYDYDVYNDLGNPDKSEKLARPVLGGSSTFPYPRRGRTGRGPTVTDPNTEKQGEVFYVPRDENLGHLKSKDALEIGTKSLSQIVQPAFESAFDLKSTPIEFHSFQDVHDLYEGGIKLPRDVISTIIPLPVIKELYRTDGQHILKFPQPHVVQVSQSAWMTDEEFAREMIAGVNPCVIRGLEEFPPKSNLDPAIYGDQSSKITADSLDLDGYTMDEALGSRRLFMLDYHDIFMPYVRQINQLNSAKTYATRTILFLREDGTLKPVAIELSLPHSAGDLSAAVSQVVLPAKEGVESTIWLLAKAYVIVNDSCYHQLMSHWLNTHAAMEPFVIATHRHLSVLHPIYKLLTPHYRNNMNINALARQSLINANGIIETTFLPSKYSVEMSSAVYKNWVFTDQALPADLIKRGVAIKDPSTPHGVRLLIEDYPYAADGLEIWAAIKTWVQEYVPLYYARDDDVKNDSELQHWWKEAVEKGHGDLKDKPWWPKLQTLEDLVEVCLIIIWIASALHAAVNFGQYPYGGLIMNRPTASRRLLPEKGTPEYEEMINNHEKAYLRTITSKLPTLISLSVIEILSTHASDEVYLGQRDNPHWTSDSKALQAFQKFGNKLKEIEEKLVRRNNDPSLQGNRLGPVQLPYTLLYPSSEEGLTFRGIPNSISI
As to the kind of experiment: Soybean lipoxygenase inhibition in vitro. The data set is classed as biochemical. Here is the method: DMSO solution of the tested compound was incubated with sodium linoleate (0.1 mM) and 0.2 mL of soybean lipoxygenase solution (1/9 × 10^−4 w/v in saline) in buffer pH 9 (tris) and at room temperature. […] The results are given in Table 1 expressed as IC50 values or % inhibition at 100 μM.

Data set [3] concerns the target T2, pancreatic bovine trypsin (Bos taurus, UniProt P00760).
T2 construct: purchased Sigma Chemical, Co. (St. Louis, MO, USA)
T2 sequence (P00760 24-246): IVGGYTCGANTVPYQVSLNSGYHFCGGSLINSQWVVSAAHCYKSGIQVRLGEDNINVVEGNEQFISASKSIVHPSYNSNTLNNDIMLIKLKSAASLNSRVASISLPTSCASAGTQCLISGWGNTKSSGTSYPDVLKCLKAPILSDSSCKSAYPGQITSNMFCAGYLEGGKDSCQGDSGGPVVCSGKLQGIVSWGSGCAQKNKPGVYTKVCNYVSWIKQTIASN
As to the kind of experiment: Inhibition of trypsin induced proteolysis in vitro. The data set is classed as biochemical. As to conditions: for IC50: read-out: IC50 μM Trypsin Inh.; for % Trypsin Inh. / inhibition at 100 µM: % inhibition at 100 μM; for inhibition at 100 µM: read-out: % Trypsin Inh. From the text:
All chemicals, solvents, chemical and biochemical reagents were of analytical grade and purchased from commercial sources (Merck, Merck KGaA, Darmstadt, Germany, Fluka Sigma-Aldrich Laborchemikalien GmbH, Hannover, Germany, Alfa Aesar, Karlsruhe, Germany and Sigma, St. Louis, MO, USA). Soybean lipoxygenase, pancreatic bovine trypsin, sodium linoleate, free radical DPPH and 2,2-azinobis-2-methyl-propanimidamine HCl (AAPH) were obtained from Sigma Chemical, Co. (St. Louis, MO, USA), carrageenin, type K, was commercially available. All starting materials were obtained from commercial sources and used without further purification.
The test was carried out according to a modified Kunitz method. Bovine albumin was used as substrate for trypsin. The reaction mixture consisted of 0.075 mg/mL trypsin (200 μL) and 780 μL of phosphate buffer pH 7.6 (including the tested compounds (20 μL in DMSO, final concentration 100 μM) preincubated at 37 °C for 20 min and then 1 mL of albumin (stock solution 6 g/100 mL in phosphate buffer 0.1 M, pH 7.6) was added and incubated at 37 °C for 30 min. After the incubation 1 mL of 5% trichloroacetic acid was added to the incubated solution to stop the enzyme’s reaction and allowed to set at room temperature for 1 h. Then the solution was filtered by filter paper and the absorption of the filtered solution was measured at 280 nm. Salicylic acid was used as a reference compound (Table 1).

The subject of data set [4] is acetic acid-induced writhing. As to the kind of experiment: Antinociceptive screen (writhing test). The data set is classed as in vivo, Wistar rats. The settings on record: i.p. 30 min before 0.6% acetic acid, writhes counted over 30 min; for inhibition in vivo at 0.01 mmol/0.1 kg: Rattus norvegicus, ip, 0.5 h, read-out: % ANA (in vivo analgesic-antinociceptive activity). The method, then:
Anti-inflammatory tests were conducted on Fisher-344 inbred rats of ca. 200 g body weight whereas antinociception and motor and sensory functions after sciatic nerve crash were performed on Wistar rats. Both sexes were used. Females pregnant were excluded. Each group was composed of 6 animals. The animals, which have been bred in our laboratory, were housed under standard conditions and received a diet of commercial food pellets and water ad libitum during the maintenance. Our studies were carried out in accordance with recognised guidelines on animal experimentation.
[…] Controls received the liquid vehicle only. All the in vivo experiments were repeated at least in triplicate and were subjected to statistic analysis using the student’s t-test.
The writhing reflex was used. The test compounds were administered i.p. 30 min prior to the i.p. administration of 1 mL/100 g body weight of 0.6% acetic acid. […] After 5 min, the number of stretches characterized by repeated contractions of the abdominal musculature accompanied by extension of the hind limbs was counted every 5 min for the next 30 min. […] The % antinociceptive activity (a:a) was calculated as: % a:a = (n − n'/n) × 100 (a: a analgesic activity, n average number of writhes of control group, n' average number in the test group).

The mark [5] stands for this setting: bovine albumin substrate, pH 7.6, 37 °C.
Where [6] appears, read: sodium linoleate 0.1 mM, tris buffer pH 9, room temperature.

In general, IC50 refers to the point on the concentration scale where inhibition reaches its midpoint. As to `CCOC(=O)c1ccc(NC(=O)/C=C/c2cccc(Oc3ccccc3)c2)cc1` [Compound 2h, (E)-Ethyl 4-(3-(3-phenoxyphenyl)acrylamido)benzoate], the “AAPH % (% inhibition of lipid peroxidation)” value in data set [1] stood at 64%. Besides, the “RM (±S.D.)” value in data set [2] stood at 0.399 ± 0.045. The IC50 on soybean lipoxygenase was determined as 100 µM; in data set [3] (setting [5]), 50 µM.
With `O=C(/C=C/c1cccc(Oc2ccccc2)c1)Nc1cccc(OC(=O)/C=C/c2cccc(Oc3ccccc3)c2)c1` [Compound 2g], the “AAPH % (% inhibition of lipid peroxidation)” value in data set [1] came out at 60%. Moreover, the “RM (±S.D.)” value in data set [2] was 1.092 ± 0.044. The figures for the IC50 (on soybean lipoxygenase; in data set [3] (setting [5])) were 72 µM and 43.6 µM, respectively.
As for `O=c1ccc2ccc(O)cc2o1` [Compound 7-HC, 7-hydroxycoumarin, reference compound], in data set [1], the “AAPH % (% inhibition of lipid peroxidation)” value was found to be 92%. For the same compound, the IC50 in data set [3] (setting [5]) is 100 µM.
Consider `Nc1cccc(O)c1` [m-AP, m-aminophenol, reference compound], for which the “AAPH % (% inhibition of lipid peroxidation)” value in data set [1] worked out at 95%. Moreover, the “% Trypsin Inh.” value in data set [3] worked out at 90%.
Take `Cc1cc(=O)oc2cc(OC(=O)/C=C/c3ccc(OCc4ccc(Br)cc4)cc3)ccc12` [Compound 3b, (E)-4-Methyl-2-oxo-2H-chromen-7-yl-3-(4-((4-bromobenzyl)oxy)phenyl)acrylate]: the “AAPH % (% inhibition of lipid peroxidation)” value in data set [1] was determined as 90%. Moreover, the “RM (±S.D.)” value in data set [2] is on record as −0.602 ± 0.01. Further, the IC50 against soybean lipoxygenase was 50 µM; in data set [3] (setting [5]), 5 µM.
As for `CC(=O)Nc1ccc(OC(=O)/C=C/c2ccc(OCc3ccc(Br)cc3)cc2)cc1` [Compound 3a, (E)-4-Acetamidophenyl 3-(4-((4-bromobenzyl)oxy)phenyl)acrylate], in data set [1], the “AAPH % (% inhibition of lipid peroxidation)” value stood at 96%. Further, the “RM (±S.D.)” value in data set [2] is reported as −0.24 ± 0.009. In data set [4], the inhibition in vivo at 0.01 mmol/0.1 kg stood at 52%. The values for the IC50 (against soybean lipoxygenase; in data set [3] (setting [5])) were 55 µM and 100 µM, respectively.
Regarding `O=c1ccc2ccccc2o1` [Coumarin, reference compound], the inhibition at 100 µM in data set [3] stood at 13%.
Consider `O=C(/C=C/c1cccc(Oc2ccccc2)c1)Nc1ccc(O)cc1` [Compound 2f, (E)-N-(4-Hydroxyphenyl)-3-(3-phenoxyphenyl)acrylamide], for which, in data set [1], the “AAPH % (% inhibition of lipid peroxidation)” value was determined as 100%. Further, in data set [2], the “RM (±S.D.)” value was −0.116 ± 0.003. At soybean lipoxygenase (setting [6]), the “IC50 μM LOX Inh.” value is listed as “low or no activity”. In addition, the half-inhibitory concentration (IC50) in data set [3] (setting [5]) was 26 µM.
For the compound `CC(=O)Nc1ccc(OC(=O)/C=C/c2cccs2)cc1` [Compound 4a, (E)-4-Acetamidophenyl 3-(thiophen-2-yl)acrylate], the “AAPH % (% inhibition of lipid peroxidation)” value in data set [1] amounted to 95%. Also, the “RM (±S.D.)” value in data set [2] is reported as −0.826 ± 0.05. For the same compound, the inhibition at 100 µM at soybean lipoxygenase (% inhibition at 100 μM, read-out: % LOX Inh.) is 16%. At soybean lipoxygenase (setting [6]), the “IC50 μM LOX Inh.” value is recorded as “low or no activity”. Moreover, the “IC50 μM Trypsin Inh.” value in data set [3] (setting [5]) is on record as “low or no activity”.
As to `Nc1ccc(O)cc1` [p-AP, p-aminophenol, reference compound], the “AAPH % (% inhibition of lipid peroxidation)” value in data set [1] was 99%. In addition, the “% Trypsin Inh.” value in data set [3] was determined as 87%.
For `Cc1cc(=O)oc2cc(O)ccc12` [Hymechromone, 4-methyl-7-hydroxycoumarin, reference compound], the “AAPH % (% inhibition of lipid peroxidation)” value in data set [1] is recorded as 93%. The inhibition at 100 µM in data set [3] stood at 60%.
As to `CC(=O)Nc1cccc(OC(=O)/C=C/c2cccc(Oc3ccccc3)c2)c1` [Compound 2e, 3-Acetamidophenyl (E)-3-(3-phenoxyphenyl)acrylate], the “AAPH % (% inhibition of lipid peroxidation)” value in data set [1] is on record as 60%. Further, the “RM (±S.D.)” value in data set [2] was determined as 0.407 ± 0.015. Besides, in data set [4] (0.01 mmol/0.1 kg), the “% ANA (in vivo analgesic-antinociceptive activity)” value is listed as 98.1 ** %. Moreover, in data set [4], the inhibition in vivo at 0.01 mmol/0.1 kg stood at 98.1%. The 50% inhibitory concentration (IC50) on soybean lipoxygenase (sodium linoleate 0.1 mM, tris buffer pH 9, room temperature, read-out: IC50 μM LOX Inh.) is 0.34 µM.
As for `O=C(O)/C=C/c1ccccc1` [I], in data set [1], the “AAPH % (% inhibition of lipid peroxidation)” value is reported as 78%. Besides, the “RM (±S.D.)” value in data set [2] is −0.485 ± 0.044. In data set [4], the inhibition in vivo at 0.01 mmol/0.1 kg stood at 60.2%. Besides, the concentration for half-maximal inhibition (IC50) was 56 µM against soybean lipoxygenase and 55 µM in data set [3] (setting [5]).
With `Cc1cc(=O)oc2cc(OC(=O)/C=C/c3cccc(Oc4ccccc4)c3)ccc12` [Compound 2d, (E)-4-Methyl-2-oxo-2H-chromen-7-yl 3-(3-phenoxyphenyl)acrylate], the “AAPH % (% inhibition of lipid peroxidation)” value in data set [1] was found to be 97%. In addition, the “RM (±S.D.)” value in data set [2] is on record as 0.558 ± 0.040. Besides, in data set [4], the inhibition in vivo at 0.01 mmol/0.1 kg was determined as 66%. In addition, the IC50 against soybean lipoxygenase was 74 µM; in data set [3] (setting [5]) it was 10 µM.
Regarding `CCOC(=O)c1ccc(N)cc1` [Benzocaine, reference compound], the “AAPH % (% inhibition of lipid peroxidation)” value in data set [1] is reported as 25%. The inhibition at 100 µM in data set [3] was 28%.
Take `Cc1c(C)c2c(c(C)c1O)CCC(C)(C(=O)O)O2` (centres unmarked) [Trolox, reference compound]: the “AAPH % (% inhibition of lipid peroxidation)” value in data set [1] was 63%.
